According to US20160213651A1, “PIDOTIMOD FOR USE IN THE TREATMENT OF INFLAMMATION-ASSOCIATED DISEASES” (POLICHEM S.A., priority 2013, published 2016):
Square brackets hold non-standard residues; d marks the D form. Peptide text beside a SMILES is read from it. pGlu = O=C1CC[C@@H](C(=O)O)N1; Thz = O=C(O)[C@@H]1CSCN1

Key:
NLRP12 [1] = assay: NLRP12 mRNA expression in MonoMac 6 cells (transcriptional array, quantitative Real-Time PCR); type: cell-based, human
Protocol: (§1) 1. Culture of human monocytes. Peripheral blood mononuclear cells (PBMCs) were obtained by peripheral blood (freshly drawn or buffy coats). Monocytes were then derived from PBMCs by positive selection using anti-CD14 paramagnetic beads (Miltenyi Biotec) as described (Marini et al., 2008). Upon purification, cells were shortly cultured (from 24 to 72 hours) in complete culture medium (RPMI 1640 complemented with 10% of fetal bovine serum certified low endotoxin).
(§2) 2. Cell treatment with Pidotimod. PBMCs, purified primary human monocytes or MonoMac 6were treated with Pidotimod, at concentrations ranging from 1 to 25 μg/mL and, for different times. In some experiments, after 6 to 48 hours from the beginning of Pidotimod treatment, cells were washed and cultured for 6-24 hours in the presence and absence of TLR 1-9 optimal ligands (Human TLR1-9 Agonist kit, Invivogen).
(§3) 3. Evaluation of gene expression involved in Pidotimod activity. Upon stimulation, cells were harvested and total RNA was extracted using the RNAeasy mini kit (Qiagen). RNA was then retro-transcribed and subjected to amplification. Real-time PCR was performed using the “Human “RT2 Profiler PCR microarray kit” according to the manufacturer's protocol (SABbiosciences, Qiagen). […]
(§4) 5. […] Data obtained were analysed using the 2^−ΔΔCt method using Relative Quantification Study software (Applied Biosystems). […]

[2] = tested on: PBMCs and/or purified monocytes; assay: ELISA quantification of inflammatory molecules in cell supernatants after TLR stimulation; type: cell-based, human
Protocol: as §1, §2
6. ELISA for the quantification of proinflammatory molecules induced by TLR stimulation. The increase of cytokine synthesis is the signal of cellular response to TLR stimulation. Pidotimod disciplines the extent of inflammation by upregulating the expression of NLRP12 which reduces the amplification of inflammatory signals triggered by TLR activation. […] The presence of IL-6, IL-8, TNF-α, MCP-1 and IL-1β was quantified in the cultural medium through ELISA assays (Endogen).

primary human monocytes = assay: mRNA of inflammatory mediators in primary human monocytes treated with TLR agonists; type: cell-based
Protocol: as §1, §2
5. Transcription array. The Pidotimod ability to reduce the inflammation induced by potent danger signals as LPS or other PAMPs was highlighted by evaluating the level of mRNA specific for effector inflammatory molecules. To this scope total RNA was extracted using the semiautomated extraction system NucliSens Easymag (Biomerieux). […] Data obtained were analysed using the 2^−ΔΔCt method using Relative Quantification Study software (Applied Biosystems). […]

NLRP12 [3] = assay: NLRP12 protein expression in Monomac6 by immunoprecipitation and immunoblotting; type: cell-based, human; conditions: Monomac6, 5 μg/ml, 36 hours, immunoblotting upon immunoprecipitation (FIG. 3)
Protocol: as §1, §2
(§5) 4. Immunoblot and immunoprecipitation assays. Cell lysates were prepared in lysis buffer containing a protease inhibitor cocktail (Roche). […] To detect the presence of cytoplasmic NLRP12, a first incubation with the goat polyclonal antibody to NLRP12 (Santa Cruz Biotechnology) was followed by the addiction of donkey-anti-goat-HRP secondary antibody. […]

NLRP12 [4] = assay: NLRP12 mRNA expression in primary monocytes from peripheral blood of healthy donors; type: cell-based, human; conditions: primary monocytes from 8 different subjects, 25 and 5 μg/ml (FIG. 2)
Protocol: as §1, §2, §3, §4

NLRP12 [5] = assay: NLRP12 downregulation induced in monocytes by TLR stimulation, Pidotimod pretreatment; type: cell-based, human; conditions: monocytes pretreated with Pidotimod
Protocol: as §1, §2, §5, §4

O=C1CC[C@@H](C(=O)N2CSC[C@H]2C(=O)O)N1 [Pidotimod, (4R)-3-(5-oxo-L-prolyl)-1,3-thiazolidine-4-carboxylic acid] ([pGlu]-[Thz]-OH)
NLRP12 mRNA increase as compared to unstimulated cells (NLRP12 [1]; 25 μg/ml, 16 hours of treatment, gene array confirmed by Real-Time PCR): two-fold | time of peak of increase in NLRP12 expression (NLRP12 [1]; 25 and 5 μg/ml, tested 6, 16, 24, 48 hours (FIG. 1)): 24 h | inflammatory molecules in cell supernatants by ELISA ([2]; purified monocytes, TLR stimulation): confirmed | inflammatory molecules by ELISA in total PBMC ([2]; total PBMC instead of purified monocytes): reproducible | IL-6, IL-8, TNF-α and IL-1β mRNA induced by TLR agonists (primary human monocytes): controls the production of these mediators at the transcriptional level | levels of specific MCP-1 (mRNA) induced by TLR agonists (primary human monocytes; 8 samples from 8 donors (FIG. 4)): consistently diminished | NLRP12 protein expression level vs untreated cells (NLRP12 [3]): higher amount of NLRP12 protein | NLRP12 mRNA expression vs non-treated cells (NLRP12 [4]): increase of NLRP12 mRNA expression | NLRP12 expression at messenger level after TLR stimulation (NLRP12 [5]; representative TLR with optimal agonist (FIG. 5 left panel)): able to counteract the decrement of NLRP12 expression | NLRP12 expression at protein level after TLR stimulation (NLRP12 [5]; representative TLR with optimal agonist (FIG. 5 right panel)): able to counteract the decrement of NLRP12 expression
